In the NIST ThermoML archive (doi:10.1016/j.fluid.2013.12.022):
Numbers after ± are expanded uncertainties.

Test: refractive index (other wavelength) (dimensionless); xn = mol fraction of the nth substance listed
Conditions: 85 kPa, Liquid, Wavelength=632.8 nm, minimum deviation angle technique

CCCCCCCC[n+]1ccn(C)c1.F[P-](F)(F)(F)(F)F [1-octyl-3-methylimidazolium hexafluorophosphate] + CC(C)(C)O
Conditions	refractive index
312.06 K, x1 = 1	1.4179 ± 0.0003
314.47 K, x1 = 1	1.4173 ± 0.0003
316.92 K, x1 = 1	1.4166 ± 0.0003
317.23 K, x1 = 0.699	1.4113 ± 0.0003
317.35 K, x1 = 0.803	1.4134 ± 0.0003
317.36 K, x1 = 0.991	1.4149 ± 0.0003
317.38 K, x1 = 0.398	1.4034 ± 0.0002
319.13 K, x1 = 0.5	1.4064 ± 0.0002
319.2 K, x1 = 1	1.416 ± 0.0003
319.25 K, x1 = 0.699	1.4107 ± 0.0003
319.26 K, x1 = 0.803	1.4129 ± 0.0003
319.3 K, x1 = 0.991	1.4144 ± 0.0003
319.31 K, x1 = 0.398	1.4028 ± 0.0002
319.63 K, x1 = 0.601	1.4088 ± 0.0002
320.77 K, x1 = 0.5	1.4059 ± 0.0002
321.17 K, x1 = 0.1	1.3834 ± 0.0002
321.28 K, x1 = 0.991	1.4139 ± 0.0003
321.32 K, x1 = 1	1.4155 ± 0.0003
321.34 K, x1 = 0.803	1.4124 ± 0.0003
321.37 K, x1 = 0.2	1.3919 ± 0.0002
321.38 K, x1 = 0.299	1.3978 ± 0.0002
321.4 K, x1 = 0.699	1.4102 ± 0.0003
321.46 K, x1 = 0.398	1.4021 ± 0.0002
321.58 K, x1 = 0.601	1.4083 ± 0.0002
322.42 K, x1 = 0.5	1.4054 ± 0.0002
322.78 K, x1 = 0.299	1.3972 ± 0.0002
322.79 K, x1 = 0.2	1.3912 ± 0.0002
322.97 K, x1 = 0.1	1.3826 ± 0.0002
323.23 K, x1 = 0.991	1.4134 ± 0.0003
323.3 K, x1 = 1	1.4149 ± 0.0003
323.32 K, x1 = 0.699	1.4097 ± 0.0003
323.32 K, x1 = 0.803	1.4118 ± 0.0003
323.79 K, x1 = 0.601	1.4077 ± 0.0002
323.84 K, x1 = 0.398	1.4013 ± 0.0002
324.07 K, x1 = 0.5	1.4049 ± 0.0002
324.29 K, x1 = 0.2	1.3906 ± 0.0002
324.29 K, x1 = 0.299	1.3967 ± 0.0002
324.43 K, x1 = 0.1	1.3819 ± 0.0002
325 K, x1 = 0.601	1.4073 ± 0.0002
325.29 K, x1 = 0.991	1.4128 ± 0.0003
325.3 K, x1 = 0.699	1.4093 ± 0.0003
325.35 K, x1 = 0.803	1.4113 ± 0.0003
325.38 K, x1 = 1	1.4143 ± 0.0003
325.78 K, x1 = 0.398	1.4007 ± 0.0002
325.81 K, x1 = 0.299	1.3963 ± 0.0002
325.82 K, x1 = 0.1	1.3814 ± 0.0002
325.92 K, x1 = 0.5	1.4043 ± 0.0002
325.95 K, x1 = 0.2	1.39 ± 0.0002
327.11 K, x1 = 0.699	1.4088 ± 0.0003
327.12 K, x1 = 0.803	1.4108 ± 0.0003
327.13 K, x1 = 0.601	1.4066 ± 0.0002
327.36 K, x1 = 0.2	1.3894 ± 0.0002
327.4 K, x1 = 0.991	1.4123 ± 0.0003
327.41 K, x1 = 1	1.4138 ± 0.0003
327.47 K, x1 = 0.299	1.3957 ± 0.0002
327.72 K, x1 = 0.398	1.4 ± 0.0002
327.74 K, x1 = 0.5	1.4037 ± 0.0002
327.97 K, x1 = 0.1	1.3804 ± 0.0002
328.85 K, x1 = 0.601	1.4061 ± 0.0002
329.18 K, x1 = 0.1	1.3797 ± 0.0002
329.18 K, x1 = 0.2	1.3887 ± 0.0002
329.26 K, x1 = 0.299	1.3951 ± 0.0002

CCCCCCCC[n+]1ccn(C)c1.F[P-](F)(F)(F)(F)F [1-octyl-3-methylimidazolium hexafluorophosphate] + CCCO
Conditions	refractive index
298.19 K, x1 = 1	1.4215 ± 0.0003
300.2 K, x1 = 1	1.421 ± 0.0003
302.19 K, x1 = 1	1.4204 ± 0.0003
304.2 K, x1 = 1	1.4199 ± 0.0003
305.17 K, x1 = 0.3	1.4047 ± 0.0002
305.17 K, x1 = 0.5	1.4114 ± 0.0002
305.21 K, x1 = 0.6	1.4137 ± 0.0002
305.22 K, x1 = 0.801	1.4171 ± 0.0003
305.23 K, x1 = 0.698	1.4154 ± 0.0003
305.26 K, x1 = 0.899	1.4184 ± 0.0003
305.27 K, x1 = 0.399	1.4084 ± 0.0002
306.18 K, x1 = 0.6	1.4134 ± 0.0002
306.19 K, x1 = 0.5	1.4111 ± 0.0002
306.2 K, x1 = 0.3	1.4044 ± 0.0002
306.2 K, x1 = 0.399	1.4081 ± 0.0002
306.2 K, x1 = 0.801	1.4168 ± 0.0003
306.22 K, x1 = 1	1.4193 ± 0.0003
306.23 K, x1 = 0.698	1.4151 ± 0.0003
306.25 K, x1 = 0.899	1.4181 ± 0.0003
307.19 K, x1 = 0.3	1.404 ± 0.0002
307.19 K, x1 = 0.801	1.4165 ± 0.0003
307.21 K, x1 = 0.399	1.4078 ± 0.0002
307.21 K, x1 = 0.6	1.4131 ± 0.0002
307.24 K, x1 = 0.698	1.4148 ± 0.0003
307.24 K, x1 = 0.899	1.4178 ± 0.0003
307.29 K, x1 = 0.2	1.3986 ± 0.0002
307.35 K, x1 = 0.5	1.4108 ± 0.0002
308.19 K, x1 = 0.5	1.4105 ± 0.0002
308.2 K, x1 = 0.3	1.4037 ± 0.0002
308.21 K, x1 = 0.801	1.4162 ± 0.0003
308.23 K, x1 = 0.899	1.4175 ± 0.0003
308.24 K, x1 = 0.698	1.4146 ± 0.0003
308.24 K, x1 = 1	1.4188 ± 0.0003
308.25 K, x1 = 0.399	1.4075 ± 0.0002
308.26 K, x1 = 0.2	1.3983 ± 0.0002
308.27 K, x1 = 0.6	1.4128 ± 0.0002
308.32 K, x1 = 0.1	1.3904 ± 0.0002
309.18 K, x1 = 0.399	1.4072 ± 0.0002
309.19 K, x1 = 0.3	1.4034 ± 0.0002
309.19 K, x1 = 0.5	1.4102 ± 0.0002
309.21 K, x1 = 0.6	1.4125 ± 0.0002
309.21 K, x1 = 0.899	1.4173 ± 0.0003
309.22 K, x1 = 0.698	1.4143 ± 0.0003
309.23 K, x1 = 0.1	1.3901 ± 0.0002
309.23 K, x1 = 0.801	1.416 ± 0.0003
309.28 K, x1 = 0.2	1.3979 ± 0.0002
310.11 K, x1 = 0.3	1.4031 ± 0.0002
310.19 K, x1 = 0.6	1.4122 ± 0.0002
310.2 K, x1 = 0.5	1.4099 ± 0.0002
310.21 K, x1 = 0.899	1.417 ± 0.0003
310.23 K, x1 = 0.1	1.3897 ± 0.0002
310.23 K, x1 = 0.698	1.414 ± 0.0003
310.25 K, x1 = 0.801	1.4157 ± 0.0003
310.25 K, x1 = 1	1.4183 ± 0.0003
310.26 K, x1 = 0.2	1.3976 ± 0.0002
310.29 K, x1 = 0.399	1.4069 ± 0.0002
311.2 K, x1 = 0.6	1.4119 ± 0.0002
311.2 K, x1 = 0.801	1.4154 ± 0.0003
311.2 K, x1 = 0.899	1.4167 ± 0.0003
311.21 K, x1 = 0.3	1.4027 ± 0.0002
311.21 K, x1 = 0.399	1.4066 ± 0.0002
311.22 K, x1 = 0.5	1.4096 ± 0.0002
311.24 K, x1 = 0.1	1.3893 ± 0.0002
311.25 K, x1 = 0.2	1.3973 ± 0.0002
311.25 K, x1 = 0.698	1.4138 ± 0.0003
312.17 K, x1 = 0.3	1.4024 ± 0.0002
312.17 K, x1 = 0.399	1.4063 ± 0.0002
312.19 K, x1 = 0.6	1.4116 ± 0.0002
312.19 K, x1 = 0.698	1.4135 ± 0.0003
312.2 K, x1 = 0.2	1.397 ± 0.0002
312.2 K, x1 = 0.5	1.4093 ± 0.0002
312.2 K, x1 = 0.801	1.4151 ± 0.0003
312.2 K, x1 = 0.899	1.4164 ± 0.0003
312.24 K, x1 = 1	1.4178 ± 0.0003
312.26 K, x1 = 0.1	1.3889 ± 0.0002
313.24 K, x1 = 0.1	1.3886 ± 0.0002
313.24 K, x1 = 0.2	1.3966 ± 0.0002

CC(C)(C)O [2-methylpropan-2-ol] + CCCCCCCC[n+]1ccn(C)c1.F[P-](F)(F)(F)(F)F
x2 = 0
Conditions	refractive index
309.16 K	1.3775 ± 0.0002
312.05 K	1.3759 ± 0.0002
315.18 K	1.3742 ± 0.0002
318.15 K	1.3725 ± 0.0002
321.11 K	1.3708 ± 0.0002
324.42 K	1.3689 ± 0.0002

CCCO [propan-1-ol] + CCCCCCCC[n+]1ccn(C)c1.F[P-](F)(F)(F)(F)F
x2 = 0
Conditions	refractive index
298.19 K	1.3818 ± 0.0002
300.2 K	1.381 ± 0.0002
302.19 K	1.3802 ± 0.0002
304.2 K	1.3793 ± 0.0002
306.22 K	1.3785 ± 0.0002
308.24 K	1.3777 ± 0.0002
310.25 K	1.3769 ± 0.0002
312.24 K	1.376 ± 0.0002
